Experimental data reported in patent EP0180500A1, “Thieno and furo[2,3-c]pyrrole derivatives, process for their preparation and medicaments containing them” (LIPHA, LYONNAISE INDUSTRIELLE PHARMACEUTIQUE, priority 1984, dated 1986).

Assays:
acidité gastrique = test: Pylorus-ligated rats according to Shay (gastric antisecretory test); settings: Rattus norvegicus, ip, 4 h, read-out: DE 50 et limites à 95 %
Description: Quatre heures plus tard, les animaux sont sacrifiés et le contenu des estomacs prélevé pour mesure de l'acidité. Les composés sont injectés intrapéritonéalement, juste après la ligature du pylore. La dose abaissant l'acidité gastrique de 50 % (DE 50) est calculée pour chaque composé, par rapport à un lot non traité. Chaque composé est testé à 3 doses géamétriquement espacées. Chaque lot comprend 10 rats.

[1] = tested on: récepteurs histaminiques H2; test: Histamine-induced gastric hyperacidity in the anaesthetised rat;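 on all read-outs here: Read-out is the continuously recorded acidity of a saline perfusate flowing through the stomach and collected at the pylorus, with at least 3 rats per dose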; settings: for DE 50 et limites à 95 %: dose reducing histamine-induced hyperacidity by 50 %, histamine infusion 25 µg/kg/minute, single i.v. dose, measured at peak action, 95 % limits in brackets; for Puissance relative Ranitidine = 1: relative potency from DE 50 I.V.
Description: Hyperacidité gastrique à l'histamine chez le rat anesthésié : (Black et Coll., Nature, 1972, 236, 385) : Des rats anesthésiés à l'éthylurétane reçoivent une perfusion continue d'histamine (25 µg/kg/minute)dans une veine jugulaire. L'estomac est continuellement perfusé par du sérum physiologique à 37°C, sous un débit constant de 3 ml/minute.
Une canule pylorique collecte le perfusat dont l'acidité est mesurée de façon continue. Chaque composé à examiner est administré par la voie intraveineuse (une seule dose par rat).L'inhibition de l'acidité est mesurée au délai correspondant au maximum d'action (délai variable d'un composé à un autre). Un minimum de 3 rats est utilisé pour chaque dose essayée. On détermine, pour chaque composé actif de l'invention, la dose diminuant de 50 % (DE 50), l'hyperacidité induite par l'histamine. On mesure en outre, pour les composés les plus actifs, la durée d'action résultant de l'injection intraveineuse d'une dose unique correspondant à la DE 50 arrondie.

[2] = biological target: récepteurs histaminiques H2 (Cavia porcellus, UniProt P47747); test: Isolated guinea-pig atrium (histamine chronotropic effect, H2 blockade)
Description: Oreillette isolée de cobaye : Des cobayes albinos pesant entre 300 et 400 g sont assomés et saignés. Après ouverture du thorax, l'oreillette droite est rapidement dégagée et placée dans une cuve à organe isolé contenant 100 ml de Krebs (composition en g/1 : NaCl 6,9 - KCl 0,35 - CaCl2 0,28 - Mg SO4 0,14 - NaHCO3 2,09 - KH2 P04 0,16, glucose 2) maintenu à 32°C et fortement oxygéné (95 % 02, 5 % CO2).
L'oreillette est reliée à une jauge de contrainte isométrique, sous une tension de 1 g. Les battements spontanés sont enregistrés sur un enregistreur galvanométrique.
Après une période de stabilisation de 1 heure, des doses cumulées d'histamine sont ajoutées au milieu de survie, toutes les 5 minutes, ce qui occasionne une accélération des battements par stimulation des récepteurs de l'histamine qui, dans les tissus cardiaques sont de nature H2. L'histamine est ajoutée jusqu'à ce que le rythme de l'oreillette n'augmente plus (effet maximum). On peut alors tracer la courbe représentant la variation du rythme en fonction de la concentration d'histamine dans le bain. Après rinçages et repos de 30 minutes, la même expérimentation est reprise 30 minutes après avoir ajouté un antagoniste H2 dans le bain (composé de l'invention ou produit de référence) .
Chaque composé est ainsi testé à 3 concentrations géométriquement croissantes qui provoquent, en cas de blocage des récepteurs H2, un déplacement vers la droite des courbes concentration d'histamine/effet chronotrope. Pour chaque composé actif, nous déterminons un pA2, c'est à dire le cologarithme de la concentration du composé de l'essai pour laquelle il faut doubler la concentration d'histamine afin de retrouver un effet chronotrope donné. […] Un minimum de 3 oreillettes est utilisé pour chaque composé essayé.
Cette préparation permet aussi de se rendre compte de la nature, réversible ou non, de l'inhibition. Dans le premier cas, il sera toujours possible de déplacer l'antagoniste des récepteurs en pratiquant des rinçages répétés ou en utilisant une concentration plus forte d'histamine, ce qui se traduira par des courbes concentration d'histamine/ef- fet chronotrope, parallèles mais supexposables.
Par contre, dans le deuxième cas (inhibition difficilement réversible), l'antagonisme H2 ne peut être complètement levé, ni par rinçages ni par des concentrations élevées d'histamine, ce qui se traduit par des courbes dose/effet non superposables (l'effet chronotrope maximum est de plus en plus faible quand la concentration de l'antagoniste H2 croit).

rats = settings: rat, in vivo, iv
Description: (§1) Les composés de l'invention sont en général très peu toxiques.

souris = settings: in vivo, iv
Description: as §1

Sequence of récepteurs histaminiques H2 (Cavia porcellus, UniProt P47747) (P47747 whole entry): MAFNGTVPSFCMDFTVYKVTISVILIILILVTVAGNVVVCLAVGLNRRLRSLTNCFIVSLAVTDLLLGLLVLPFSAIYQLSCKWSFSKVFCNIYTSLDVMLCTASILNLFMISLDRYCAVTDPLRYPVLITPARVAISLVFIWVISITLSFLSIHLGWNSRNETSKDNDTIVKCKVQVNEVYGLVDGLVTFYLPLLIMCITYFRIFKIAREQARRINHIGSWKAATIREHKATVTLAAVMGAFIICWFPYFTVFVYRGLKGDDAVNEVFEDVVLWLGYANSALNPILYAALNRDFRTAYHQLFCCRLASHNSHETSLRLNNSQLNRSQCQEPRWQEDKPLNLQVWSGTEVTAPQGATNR

Row | Molecule | Kb [2] [nM] | ED50 (acidité gastrique) [mg/kg] | DE 50 et limites à 95 % [1] | Puissance relative Ranitidine = 1 [1] | effet toxique (rats) | effet toxique (souris)
1 | CCN1Cc2cc(CSCCNC(=NC#N)NC)sc2C1 [Exemple 1] | 105 | 19 | 0,6 (0,25-1,5) mg/kg/I.V. | 0,15 |  | 
2 | N-[ [ (Isobutyl-5 dihydro-5,6-4H-thiéno [ 2,3-c ] pyrrolyl-2) méthylthio ]-2 éthyl J oxyde-1 thiadiazole [ 1,2,5 ] diamine-3,4 [Exemple 29] |  |  | 0,1 (0,04-0,25) mg/kg/I.V. | 0,9 |  | 
3 | CCN1Cc2cc(CSCCNC(=C[N+](=O)[O-])NC)sc2C1 [Exemple 3, N-[ [ (Ethyl-5 dihydro-5,6-4H-thiéno [2,3-c]pyrrolyl-2)méthylthio]-2 éthyl]N'-méthyl nitro-2 éthènediamine-1,1] | 77.6 | 8 | 0,3 (0,1 -0,9) mg/kg/I.V. | 0,3 |  | 
4 | CCCN1Cc2cc(CSCCNc3n[s+]([O-])nc3N)sc2C1 (centres unmarked) [Exemple 22] | 17 | 0.5 | 0,05 (0,02-0,11) mg/kg/I.V. | 1,8 | aucun effet toxique | aucun effet toxique
5 | CCN1Cc2cc(CSCCC(N)=NS(N)(=O)=O)sc2C1 [Exemple 8, [ (Ethyl-5 dihydro-5,6-4H-thiéno [2,3-c]pyrrolyl-2)méthylthio]-3 N-sulfamoyl propanamidine] | 129 | 18 | 0,5 (0,18-1,4) mg/kg/I.V. | 0,18 |  | 
6 | CCN1Cc2cc(CSCCNc3n[s+]([O-])nc3N)sc2C1 (centres unmarked) [Exemple 13, N-[ [ (Ethyl-5 dihydro-5,6-4H-thiéno [2,3-c]pyrrolyl-2)méthylthio]-2 éthyl] oxyde-1 thiadiazole [1,2,5,] diamine-3,4] | 20.9 | 1.5 | 0,03 (0,02-0,05) mg/kg/I.V. | 3 |  | 
7 | CNC(=C[N+](=O)[O-])NCCCOc1cccc2c1CCN(C)C2 [Composé A, N-méthyl N' - [(méthyl-2 tétrahydro-1,2,3,4 isoqwnoléine-5 oxy)-3 propyl] nitro-2 éthène diamine-1,1, reference compound] | 1320 | > 50 | > 5 mg/kg/I.V. |  |  | 
8 | CNC(=NC#N)NCCSCc1[nH]cnc1C [Cimétidine, reference compound] |  | 42 | 0,4 (0,18-0,9) mg/kg/I.V. |  |  | 
9 | N-Cyano N' -[ [ (dihydro-5,6 isopropyl-5-4H-thiéno [2,3-c] pyrrolyl-2) méthylthio]-2 éthyl] N" méthyl guanidine [Exemple 6] |  |  | > 5 mg/kg/I.V. |  |  | 
10 | CCN1Cc2cc(CSCCNc3nc(N)nn3C)sc2C1 [Exemple 11] |  |  | 0,4 (0,15-1) mg/kg/I.V. | 0,22 |  | 
11 | CCCCCN1Cc2cc(CSCCNC(=C[N+](=O)[O-])NC)sc2C1 [Exemple 18, N-[ [ (Dihydro-5,6 n.pentyl-5-4H-thiéno [2,3-c]pyrrolyl-2)méthylthio]-2 éthyl]N'-méthyl nitro-2 éthène diamine-1,1] | 89.1 | 15 | 0,5 (0,17-1,5) mg/kg/I.V. | 0,18 |  | 

More lines, main results first:

Row | Kb [2] [nM] | Molecule | ED50 (acidité gastrique) [mg/kg] | DE 50 et limites à 95 % [1] | Puissance relative Ranitidine = 1 [1] | effet toxique (rats) | effet toxique (souris)
12 | 42.7 | CCN1Cc2cc(CSCCNc3n[s+]([O-])nc3NC)sc2C1 (centres unmarked) [Exemple 20, N-[ [ (Ethyl-5 dihydro-5,6-4H-thiéno [2,3-c]pyrrolyl-2)méthylthio]-2 éthyl]N'-méthyl oxyde-1 thiadiazole-[1,2,5] diamine-3,4] | 20 | 0,1 (0,03-0,3) mg/kg/I.V. | 0,9 |  | 
13 | 79.4 | C#CCNc1n[s+]([O-])nc1NCCSCc1cc2c(s1)CN(CC)C2 (centres unmarked) [Exemple 21, N-[ [ (Ethyl-5 dihydro-5,6-4H-thiéno [2,3-c]pyrrolyl-2)méthylthio]-2 éthyl] N'-propargyl oxyde-1 thiadiazole [1,2,5] diamine-3,4] | 32 | 0,6 (0,3 -1,2) mg/kg/I.V. | 0,15 |  | 
14 | 36.3 | CNC(=C[N+](=O)[O-])NCCSCc1ccc(CN(C)C)o1 [Ranitidine, reference compound] | 14 | 0,09 (0,05-0,17) mg/kg/I.V. | 1 |  | 
15 | 1260 | CCN1Cc2sc(CSCCNC(=C[N+](=O)[O-])NC)c(C)c2C1 [Exemple 19] | > 50 | > 5 mg/kg/I.V. |  |  | 
16 | 30.9 | CCCCCN1Cc2cc(CSCCNc3n[s+]([O-])nc3N)sc2C1 (centres unmarked) [Exemple 31] | 3.6 | 0,15 (0,07-0,3) mg/kg/I.V. | 0,6 |  | 
17 | 49 | COCCN1Cc2cc(CSCCNc3n[s+]([O-])nc3N)sc2C1 (centres unmarked) [Exemple 33, N-[ [ [Dihydro-5,6 (méthoxy-2 éthyl) -5-4H-thiéno [2,3-c]pyrolyl-2]méthylthio]-2 éthyl] oxyde-1 thiadiazole [1,2,5] diamine-3,4] | 0.7 | 0,2 (0,08-0,5) mg/kg/I.V. | 0,45 |  | 
18 | 63.1 | CCCN1Cc2cc(CSCCNc3c(N)c(=O)c3=O)sc2C1 [Exemple 34, Amino-3 [ [ (dihydro-5,6 n.propyl-5-4H-thiéno [2,3-c]pyrrolyl-2)méthylthio]-2 éthylamino]-4 cyclobutène dione-1,2] | 11 | 0,25 (0,12-0,5) mg/kg/I.V. | 0,36 |  | 
19 | 42.7 | CCCCN1Cc2cc(CSCCNc3n[s+]([O-])nc3N)sc2C1 (centres unmarked) [Exemple 28] | 1 | 0,2 (0,08-0,5) mg/kg/I.V. | 0,45 |  | 
20 | 64.6 | CCCCCCN1Cc2cc(CSCCNc3n[s+]([O-])nc3N)sc2C1 (centres unmarked) [Exemple 30, N-[ [ (n.Hexyl-5 dihydro-5,5-4H-thiéno [2,3-c]pyrrolyl-2)méthylthio]-2 éthyl] oxyde-1 thiadiazole [1,2,5] diamine-3,4] | 0.5 | 0,2 (0,07-0,6) mg/kg/I.V. | 0,45 |  | 
